# Experimental data from patent publication US20240424111A1, “Degrader Compounds and Uses Thereof” (CALICO LIFE SCIENCES LLC, priority 2021, published 2024).
# Experiments:
# [1] = target: T1, PTPN2 (Mus musculus, UniProt Q06180); experiment: HiBiT PTPN2 degradation in B16F10.4 cells, 24 hours; format: cell-based
# T1 construct: HiBiT; host or cells: B16F10.4
# T1 sequence (Q06180 1-406): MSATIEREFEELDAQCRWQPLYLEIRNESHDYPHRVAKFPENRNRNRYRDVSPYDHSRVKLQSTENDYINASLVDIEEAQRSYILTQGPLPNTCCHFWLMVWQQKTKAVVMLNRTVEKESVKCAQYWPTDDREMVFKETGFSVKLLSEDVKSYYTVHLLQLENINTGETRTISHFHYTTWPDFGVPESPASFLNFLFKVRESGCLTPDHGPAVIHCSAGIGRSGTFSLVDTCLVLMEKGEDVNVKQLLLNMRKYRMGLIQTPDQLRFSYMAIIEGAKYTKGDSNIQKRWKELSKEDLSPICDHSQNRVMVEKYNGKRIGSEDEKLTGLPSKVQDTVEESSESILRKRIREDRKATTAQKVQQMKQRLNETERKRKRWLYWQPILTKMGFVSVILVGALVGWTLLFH
# Protocol: (§1) PTPN2 degradation was determined based on quantification of luminescent signal using Nano-Glo® HiBiT Lytic Assay kit. Test compounds were added to the 384-well plate from a top concentration of 10 μM with 11 points, half log titration in duplicates. 293T. 109 cells were added into 384-well plates at a cell density of 5000 cells per well. The plates were kept at 37° C. with 5% CO2 for 24 hours. The cells treated in the absence of the test compound were the negative control and the cells without Nano-Glo® HiBiT Lytic reagent were the positive control. After 24-hour incubation, Nano-Glo® HiBiT Lytic Assay reagents were added to the cells. Luminescence was acquired on EnVision™ Multilabel Reader (PerkinElmer, Santa Clara, CA, USA).
# [2] = target: T2, PTPN2 (Homo sapiens, UniProt P17706); experiment: HiBiT PTPN2 degradation in 293T.109 (HiBiT-PTPN2) cells, 24 hours; format: cell-based; conditions: 293T.109 cells
# T2 construct: expressed in transfected cells; host or cells: 293T.109 (HiBiT-PTPN2), derived from 293T WT (ATCC)
# T2 sequence (P17706 1-415): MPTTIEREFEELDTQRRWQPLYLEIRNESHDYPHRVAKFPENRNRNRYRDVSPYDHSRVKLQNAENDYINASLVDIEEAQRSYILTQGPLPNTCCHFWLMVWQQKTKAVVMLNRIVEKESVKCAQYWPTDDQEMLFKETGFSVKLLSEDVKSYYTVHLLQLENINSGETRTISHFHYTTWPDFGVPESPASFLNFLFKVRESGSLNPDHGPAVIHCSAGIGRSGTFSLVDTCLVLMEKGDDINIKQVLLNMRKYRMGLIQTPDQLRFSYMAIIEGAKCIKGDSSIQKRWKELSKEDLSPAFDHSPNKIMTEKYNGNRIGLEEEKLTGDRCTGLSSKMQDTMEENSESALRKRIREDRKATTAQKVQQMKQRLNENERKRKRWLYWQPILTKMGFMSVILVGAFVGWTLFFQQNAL
# Source text: Dulbecco's modified Eagle medium (DMEM) without phenol red and fetal bovine serum (FBS) were purchased from Gibco (Grand Island, NY, USA). Nano-Glo® HiBiT Lytic Assay System was purchased from Promega (Medison, WI, USA). 293T. 109 (HiBiT-PTPN2) cell line was generated by ectopically expressing PTPN2 with N-terminal HiBiT fusion tag in 293T WT cell line purchased from ATCC (Manassas, VA, USA). Cell culture flasks and 384-well microplates were acquired from VWR (Radnor, PA, USA).
# PTPN2 Degradation Analysis
# as §1
DC50 [1] [nM],DC50 [2] [nM],Structure (SMILES)
50 to 150,50 to 150,"C[C@@H](C(=O)Nc1ccc2c(F)c(N3CC(=O)NS3(=O)=O)c(O)cc2c1)N1CCC(c2ccc3c(c2)n(C)c(=O)n3C2CCC(=O)NC2=O)CC1 (single isomer, unassigned) [Degrader 104]"
150 to 500,50 to 150,"Cn1c(=O)n(C2CCC(=O)NC2=O)c2ccc([C@H]3CCN(CC(=O)Nc4ccc5c(F)c(N6CC(=O)NS6(=O)=O)c(O)cc5c4)C3)cc21 (single isomer, unassigned) [Degrader 123]"
150 to 500,150 to 500,"CCn1c(=O)n(C2CCC(=O)NC2=O)c2ccc([C@H]3CCN(CC(=O)Nc4ccc5c(F)c(N6CC(=O)NS6(=O)=O)c(O)cc5c4)C[C@@H]3F)cc21 (single isomer, unassigned) [Degrader 130]"
< 50,50 to 150,Cn1c(=O)n([C@H]2CCC(=O)NC2=O)c2ccc(-c3ccc(CC(=O)Nc4ccc5c(F)c(N6CC(=O)NS6(=O)=O)c(O)cc5c4)cc3)cc21 [Degrader 27]
< 50,50 to 150,Cc1cc(CC(=O)Nc2ccc3c(F)c(N4CC(=O)NS4(=O)=O)c(O)cc3c2)ccc1-c1ccc2c(c1)n(C)c(=O)n2C1CCC(=O)NC1=O (stereo not drawn) [Degrader 28]
< 50,50 to 150,Cn1c(=O)n(C2CCC(=O)NC2=O)c2ccc(-c3ccc4c(cnn4CC(=O)Nc4ccc5c(F)c(N6CC(=O)NS6(=O)=O)c(O)cc5c4)c3)cc21 (stereo not drawn) [Degrader 29]
150 to 500,< 50,Cn1nc(C2CCC(=O)NC2=O)c2ccc(C3CCN(C4CC(C(=O)Nc5ccc6c(F)c(N7CC(=O)NS7(=O)=O)c(O)cc6c5)C4)CC3)cc21 (stereo not drawn) [Degrader 30]
50 to 150,50 to 150,Cn1c(=O)n(C2CCC(=O)NC2=O)c2ccc(-c3ccn(CC(=O)Nc4ccc5c(F)c(N6CC(=O)NS6(=O)=O)c(O)cc5c4)c(=O)c3)cc21 (stereo not drawn) [Degrader 32]
50 to 150,50 to 150,Cn1c(=O)n(C2CCC(=O)NC2=O)c2ccc(-c3ccc(CC(=O)Nc4ccc5c(F)c(N6CC(=O)NS6(=O)=O)c(O)cc5c4)c(F)c3)cc21 (stereo not drawn) [Degrader 33]
≥ 500,≥ 500,Cn1c(=O)n(C2CCC(=O)NC2=O)c2ccc(CC3CCN(C(=O)Nc4ccc5c(F)c(N6CC(=O)NS6(=O)=O)c(O)cc5c4)CC3)cc21 (stereo not drawn) [Degrader 34]
150 to 500,≥ 500,CC(C)n1c(=O)n(C2CCC(=O)NC2=O)c2ccc(N3CCC(CC(=O)Nc4ccc5c(F)c(N6CC(=O)NS6(=O)=O)c(O)cc5c4)CC3)cc21 (stereo not drawn) [Degrader 35]
< 50,< 50,Cn1c(=O)n(C2CCC(=O)NC2=O)c2ccc(C3CCN(CC(=O)Nc4ccc5c(F)c(N6CC(=O)NS6(=O)=O)c(O)cc5c4)CC3F)cc21 (stereo not drawn) [Degrader 36]
50 to 150,50 to 150,Cn1c(=O)n(C2CCC(=O)NC2=O)c2ccc([C@H]3CCN(CC(=O)Nc4ccc5c(F)c(N6CC(=O)NS6(=O)=O)c(O)cc5c4)C[C@@H]3F)cc21 (stereo partly drawn) [Degrader 37]
< 50,< 50,Cn1c(=O)n(C2CCC(=O)NC2=O)c2ccc([C@@H]3CCN(CC(=O)Nc4ccc5c(F)c(N6CC(=O)NS6(=O)=O)c(O)cc5c4)C[C@H]3F)cc21 (stereo partly drawn) [Degrader 38]
150 to 500,50 to 150,Cn1nc(C2CCC(=O)NC2=O)c2ccc(Oc3ccc(CC(=O)Nc4ccc5c(F)c(N6CC(=O)NS6(=O)=O)c(O)cc5c4)cc3)cc21 (stereo not drawn) [Degrader 39]

# The next lines start with the compound.
Structure (SMILES),DC50 [1] [nM],DC50 [2] [nM]
Cc1nn(CC(=O)Nc2ccc3c(F)c(N4CC(=O)NS4(=O)=O)c(O)cc3c2)c(C)c1-c1ccc2c(C3CCC(=O)NC3=O)nn(C)c2c1 (stereo not drawn) [Degrader 1],< 50,< 50
Cn1c(=O)n(C2CCC(=O)NC2=O)c2ccc(C3CCN(CC4CC(C(=O)Nc5ccc6c(F)c(N7CC(=O)NS7(=O)=O)c(O)cc6c5)C4)CC3)cc21 (stereo not drawn) [Degrader 6],50 to 150,< 50
Cn1c(=O)n(C2CCC(=O)NC2=O)c2ccc(C3CCN(CCC(C)(C)CCOc4ccc5cc(O)c(N6CC(=O)NS6(=O)=O)c(F)c5c4)CC3)cc21 (stereo not drawn) [Degrader 7],150 to 500,< 50
Cn1c(=O)n(C2CCC(=O)NC2=O)c2ccc(N3CCC(CCC(=O)Nc4ccc5c(F)c(N6CC(=O)NS6(=O)=O)c(O)cc5c4)CC3)cc21 (stereo not drawn) [Degrader 8],50 to 150,50 to 150
O=C1CCC(n2c(=O)n(C3COC3)c3cc(C4CCN(CC(=O)Nc5ccc6c(F)c(N7CC(=O)NS7(=O)=O)c(O)cc6c5)CC4)ccc32)C(=O)N1 (stereo not drawn) [Degrader 9],150 to 500,150 to 500
Cn1c(=O)n(C2CCC(=O)NC2=O)c2ccc(C3CCN(CC(=O)N4CCC(Oc5ccc6cc(O)c(N7CC(=O)NS7(=O)=O)c(F)c6c5)CC4)CC3(F)F)cc21 (stereo not drawn) [Degrader 10],150 to 500,50 to 150
CCn1nc(C2CCC(=O)NC2=O)c2ccc(C3CCN(CC(=O)Nc4ccc5c(F)c(N6CC(=O)NS6(=O)=O)c(O)cc5c4)CC3(F)F)cc21 (stereo not drawn) [Degrader 11],150 to 500,50 to 150
CCn1nc(C2CCC(=O)NC2=O)c2ccc(C3CCN(CC(=O)N4CC(Oc5ccc6cc(O)c(N7CC(=O)NS7(=O)=O)c(F)c6c5)C4)CC3(F)F)cc21 (stereo not drawn) [Degrader 12],50 to 150,< 50
CC(C)n1nc(C2CCC(=O)NC2=O)c2ccc(C3CCN(CC(=O)N4CC(Oc5ccc6cc(O)c(N7CC(=O)NS7(=O)=O)c(F)c6c5)C4)CC3(F)F)cc21 (stereo not drawn) [Degrader 13],50 to 150,50 to 150
Cn1c(=O)n(C2CCC(=O)NC2=O)c2ccc(C3CCN(CC4CC4C(=O)N4CC(Oc5ccc6cc(O)c(N7CC(=O)NS7(=O)=O)c(F)c6c5)C4)CC3)cc21 (stereo not drawn) [Degrader 14],150 to 500,50 to 150
Cn1c(=O)n(C2CCC(=O)NC2=O)c2ccc([C@@H]3CCN(CC(=O)N4CC(Oc5ccc6cc(O)c(N7CC(=O)NS7(=O)=O)c(F)c6c5)C4)C3)cc21 (stereo partly drawn) [Degrader 16],≥ 500,150 to 500
Cn1c(=O)n(C2CCC(=O)NC2=O)c2ccc(C3CCN(CC4CC4C(=O)N4CC[C@H](c5ccc6cc(O)c(N7CC(=O)NS7(=O)=O)c(F)c6c5)C4)CC3)cc21 (stereo partly drawn) [Degrader 17],150 to 500,50 to 150
Cn1c(=O)n(C2CCC(=O)NC2=O)c2ccc(C3CCN(CC4CC4C(=O)N4CC[C@@H](c5ccc6cc(O)c(N7CC(=O)NS7(=O)=O)c(F)c6c5)C4)CC3)cc21 (stereo partly drawn) [Degrader 18],150 to 500,50 to 150
Cn1c(=O)n(C2CCC(=O)NC2=O)c2ccc(N3CCC(CC(=O)Nc4ccc5c(F)c(N6CC(=O)NS6(=O)=O)c(O)cc5c4)CC3)cc21 (stereo not drawn) [Degrader 19],50 to 150,< 50
Cn1c(=O)n([C@H]2CCC(=O)NC2=O)c2ccc(N3CCC(CC(=O)Nc4ccc5c(F)c(N6CC(=O)NS6(=O)=O)c(O)cc5c4)CC3)cc21 [Degrader 20],50 to 150,50 to 150
Cn1c(=O)n([C@@H]2CCC(=O)NC2=O)c2ccc(N3CCC(CC(=O)Nc4ccc5c(F)c(N6CC(=O)NS6(=O)=O)c(O)cc5c4)CC3)cc21 [Degrader 21],50 to 150,50 to 150
CCn1c(=O)n(C2CCC(=O)NC2=O)c2ccc(N3CCC(CC(=O)Nc4ccc5c(F)c(N6CC(=O)NS6(=O)=O)c(O)cc5c4)CC3)cc21 (stereo not drawn) [Degrader 22],50 to 150,50 to 150
C[C@H]1CN(CC(=O)Nc2ccc3c(F)c(N4CC(=O)NS4(=O)=O)c(O)cc3c2)CCN1c1ccc2c(c1)n(C)c(=O)n2C1CCC(=O)NC1=O (stereo partly drawn) [Degrader 23],150 to 500,150 to 500
C[C@@H]1CN(CC(=O)Nc2ccc3c(F)c(N4CC(=O)NS4(=O)=O)c(O)cc3c2)CCN1c1ccc2c(c1)n(C)c(=O)n2C1CCC(=O)NC1=O (stereo partly drawn) [Degrader 24],50 to 150,50 to 150
Cn1c(=O)n(C2CCC(=O)NC2=O)c2ccc(-c3ccc(CC(=O)Nc4ccc5c(F)c(N6CC(=O)NS6(=O)=O)c(O)cc5c4)cc3)cc21 (stereo not drawn) [Degrader 25],< 50,< 50
Cn1c(=O)n([C@@H]2CCC(=O)NC2=O)c2ccc(-c3ccc(CC(=O)Nc4ccc5c(F)c(N6CC(=O)NS6(=O)=O)c(O)cc5c4)cc3)cc21 [Degrader 26],< 50,50 to 150
